From US12728121B2, “Compositions and methods for treating idiopathic pulmonary fibrosis” (Seyltx, Inc., priority 2019, dated 2026)

What was measured:
Type in all cases: in vivo, Mouse/C57BL/6
BLM-induced fibrosis [1] = experiment: Bleomycin (BLM)-induced lung fibrosis in mice: Gomori's Trichrome score of lung sections; details: for Trichrome score (average) / % reduction in fibrosis: day 21; for Trichrome score (average): BLM 2.5 U/kg intratracheal, p.o. once daily 14 days from day 7, mg/kg: Pirfenidone 300, Bromantane 20, Ifenoprodil 30, Radiprodil 30, Bemithyl 200, Dexamethasone 0.25, Repirinast 90, Normal 1.00, Vehicle 4.59; for % reduction in fibrosis: from Trichrome scores relative to vehicle and normal groups, doses as Table 1, p.o. once daily 14 days
Protocol: (§1) The mouse species or strain was Mouse/C57BL/6, the mice being 8-10 week old males. Nine groups of 10 mice each were obtained from Charles River Laboratories. Each group was randomized based on body weight. Bleomycin (BLM) was obtained from Euroasias.
(§2) The mice were anesthetized with isoflurane/O2 mixture. Bleomycin (BLM) was then administered to the mice intratracheally (PennCentury)—single bolus, at 2.5 U/kg body weight in 50 μl sterile saline.
(§3) Seven days after the bleomycin is administered, and fibroblasts have generally proliferated, six of the nine groups of IT bleomycin challenged mice were be dosed orally (p.o.) once a day with Bromantane, Ifenoprodil, Radiprodil, Bemithyl, Dexamethasone, or Repirinast at specified amounts per kg of body weight (mg/kg) daily for 14 consecutive days. The amounts are set out in Table 1 below. The vehicle used was 0.5% carboxymethyl cellulose (CMC). Prifenidone was also prepared in 0.5% CMC and administrated orally once a day to one of the nine IT bleomycin challenged mice groups beginning for 14 consecutive days. Vehicle and no-BLM control groups received 0.5% CMC orally for 14 consecutive days.
On day 21 of the study, 4 hours after the last dose, the mice were sacrificed and plasma was collected and frozen for cytokine analysis (testing for IL-6, IL-12, TGFβ, IL-13 proteins, or fibrosis markers). Bronchoalveolar lavage fluid (BALF) was collected and frozen for optional cytokine analyses and cell counts pending the initial data. The lungs were then excised, weighed and fixed in formalin. Gomori's Trichrome stain, a histological stain, was used to determine collagen content.
Trichrome Score: A trichrome score measures the level of scarring to the lungs caused by the disease. The greater the trichrome score, the greater the scarring.
Formalin fixed lung samples were submitted to affiliated histopathology laboratory for histopathological analysis subjected Gomori's Trichrome stain, a histological stain, which was used to determine collagen content.
Each lung was divided into ten sections. All ten sections were stained and evaluated. A board certified veterinarian pathologist assessed the presence of lung fibrosis and severity score—The expression of collagen (associated with fibrosis) is determined from the ratio of the stained area versus the total area of the lung section.

BLM-induced fibrosis [2] = experiment: Bleomycin (BLM)-induced lung fibrosis in mice: mortality rate over 21 days; details: doses as Table 1; for Fatality Number: deaths/mice per group over 21 days, Vehicle 2/10; for Percent Fatality: over 21 days, Vehicle 20%
Protocol: as §1, §2, §3
Mortality Rate: the mortality rate in each group was also observed over 21 days.

[3] = Bleomycin (BLM)-induced lung fibrosis in mice: body weight over 21 days; details: for Percent Change in Body Weight / Body Weight: doses as Table 1; for Body Weight: group mean; for changes in body weight as compared to the BLM-vehicle group (in words): doses as Table 1, p.o. once daily
Protocol: as §1, §2, §3
Body Weight: The body weights were measured over 21 days using a laboratory balance.

[4] = doses as Table 1, order: Dexamethasone and Repirinast, followed by Ifenprodil and Radiprodil

SMILES	Trichrome score (average) (BLM-induced fibrosis [1])	% reduction in fibrosis (BLM-induced fibrosis [1]) [%]	Fatality Number (BLM-induced fibrosis [2])	Percent Fatality (BLM-induced fibrosis [2]) [%]	Percent Change in Body Weight ([3]; 7-Nov) [%]	Body Weight ([3]; 7-Nov) [g]	Percent Change in Body Weight ([3]; 8-Nov) [%]	Body Weight ([3]; 8-Nov) [g]	Percent Change in Body Weight ([3]; 9-Nov) [%]	Body Weight ([3]; 9-Nov) [g]	Percent Change in Body Weight ([3]; 12-Nov) [%]	Body Weight ([3]; 12-Nov) [g]	Percent Change in Body Weight ([3]; 14-Nov) [%]	Body Weight ([3]; 14-Nov) [g]	Percent Change in Body Weight ([3]; 16-Nov) [%]	Body Weight ([3]; 16-Nov) [g]	Percent Change in Body Weight ([3]; 20-Nov) [%]	Body Weight ([3]; 20-Nov) [g]	Percent Change in Body Weight ([3]; 22-Nov) [%]	Body Weight ([3]; 22-Nov) [g]	further results
C[C@@H]([C@H](O)c1ccc(O)cc1)N1CCC(Cc2ccccc2)CC1 (stereo in doubt) [Ifenoprodil, 4-[2-(4-benzylpiperidin-1-ium-1-yl)-1-hydroxypropyl] phenol; 2,3,4-trihydroxy-4-oxobutanoate]	3.37	34.0	0/10	0	0.0	24.4	−0.1	24.3	−0.3	24.1	−2.0	22.4	−1.3	23.1	−0.8	23.6	−0.3	24.1	0.5	24.9	Trichrome score response versus BLM-vehicle group (in words) (BLM-induced fibrosis [1]; [4]): response was better; percent reduction in lung fibrosis in comparison to the BLM-vehicle group (in words) (BLM-induced fibrosis [1]; [4]): higher; improvement in lung fibrosis, loss of body weight, Trichrome score and mortality as compared to BLM-vehicle (conclusion, in words) (BLM-induced fibrosis [1]; oral administration, Dexamethasone 0.25, Repirinast 90, Ifenprodil 30, Radiprodil 30 mg/kg): showed improvement; percent survival (in words) (BLM-induced fibrosis [2]; order: Dexamethasone and Repirinast, followed by Ifenprodil and Radiprodil): higher; Percent Change in Body Weight ([3]; 26-Nov): 0.2%; Body Weight ([3]; 26-Nov): 24.6 g; Percent Change in Body Weight ([3]; 28-Nov): 0.7%; Body Weight ([3]; 28-Nov): 25.1 g; changes in body weight as compared to the BLM-vehicle group (in words) [3]: showed improvement beginning on Day 5
CCSc1nc2ccccc2[nH]1 [Bemithyl, 2-Ethylsulfanyl-1H-benzoimidazole]	4.14	12.5	1/10	10	0.0	24.6	0.0	24.7	−0.6	24.1	−1.6	23.0	−1.1	23.5	−1.7	22.9	−1.6	23.1	−0.6	24.0	Percent Change in Body Weight ([3]; 26-Nov): −0.9%; Body Weight ([3]; 26-Nov): 23.7 g; Percent Change in Body Weight ([3]; 28-Nov): −0.3%; Body Weight ([3]; 28-Nov): 24.3 g; changes in body weight as compared to the BLM-vehicle group (in words) [3]: showed improvement beginning on Day 5
Brc1ccc(NC2C3CC4CC(C3)CC2C4)cc1 (stereo not shown) [Bromantane, N-(4-bromophenyl)adamantan-2-amine]	4.00	16.4	3/10	30	0.0	24.8	−0.1	24.7	−0.8	24.0	−1.8	23.1	−1.1	23.7	−1.5	23.3	−1.9	22.9	−1.6	23.2	Percent Change in Body Weight ([3]; 26-Nov): −1.0%; Body Weight ([3]; 26-Nov): 23.8 g; Percent Change in Body Weight ([3]; 28-Nov): 0.4%; Body Weight ([3]; 28-Nov): 25.2 g; changes in body weight as compared to the BLM-vehicle group (in words) [3]: showed improvement beginning Day 5, with the exception of Day 15
